From PMC13047053, “Crystal structure of human INPP5K with an allosteric inhibitor reveals the structural basis for species specific potency” (Scientific Reports, 2026)

What was measured:
[1] = molecular target: guinea pig INPP5K (Cavia porcellus, UniProt H0V8T7); test: Inorganic phosphate detection assay for phosphatase inhibition; assay type: biochemical; conditions: 20 µM diC8-PI(3,4,5)P3, 20 min
Source text: The protein purification is described in detail elsewhere. Briefly, full-length human INPP5K (amino acids 1–448, UniProt ID: Q9BT40), rat INPP5K (aa 1–446, UniProt ID: Q9R0B6), mouse INPP5K (aa 1–468, UniProt ID: Q8C5L6), hamster INPP5K (aa 1–453, UniProt ID: G3HTF6), guinea pig INPP5K (aa 1–473, UniProt ID: H0V8T7) containing an N-terminal FLAG-tag, full-length human SHIP2 (aa 1–1 258) containing a C-terminal FLAG-tag, and full-length human PIPP (amino acids 1–1 006) containing an N-terminal His8-tag were all cloned into the pcDNA3.4 expression vector and transiently expressed in Expi293 cells (Thermo Fisher Scientific). The PH domain of human TAPP1 (amino acids 180–404) containing an N-terminal GST-tag was expressed in a pGEX6P1 expression vector (GE Healthcare) in E. coli strain BL21 ((Merck KGaA, Darmstadt, Germany)), following IPTG induction at 37 °C for 5 h. All the FLAG-tagged INPP5Ks and hSHIP2 were purified using affinity columns containing DDDDK-tagged protein purification gel (MBL, Medical & Biological Laboratories Co., Ltd., Tokyo, Japan), followed by size-exclusion chromatography with Superdex 200 columns (GE Healthcare). His8-tagged hPIPP was purified using Ni–NTA Superflow (Qiagen) and Superdex 200 columns. The GST-tagged hTAPP1 domain was purified using a Glutathione Sepharose 4B (GE Healthcare) and Superdex 200 columns. The purity of the protein obtained was evaluated using SDS-PAGE.
The release of inorganic phosphate was measured using a PiPer Phosphate Assay Kit (Thermo Fisher Scientific), according to the manufacturer’s instructions, but with some modifications. Enzyme reactions were performed in a final volume of 10 µL per well in a 384-well nonbinding black plates (Greiner Bio-One International, GmbH, Kremsmünster, Austria). The reaction mixtures containing 20 µM diC8-PI(3,4,5)P₃ and each enzyme (human INPP5K, mouse INPP5K, rat INPP5K, hamster INPP5K, guinea pig INPP5K, human SHIP2, or human PIPP) in reaction buffer (50 mM Tris–HCl pH 7.0, 150 mM NaCl, 7.5 mM MgCl₂, 0.03% Igepal CA-630, 0.03% gelatin), with or without various concentrations of inhibitor, were incubated for 20 min at room temperature. The reactions were then stopped and detection reactions were initiated by adding 5 µL of detection mix 1 (60 mM EDTA, 12 U/mL maltose phosphorylase, and 0.6 mM maltose in 100 mM Tris–HCl pH 8.0). After incubation for 60 min at room temperature, 5 µL of detection mix 2 (8 U/mL glucose oxidase, 0.8 U/mL HRP, and 100 µM Amplex Red in 100 mM Tris–HCl pH 8.0) was added, and the mixture was incubated for a further 30 min at room temperature in the dark. The fluorescence generated was measured using an Envision plate reader at 531/590 nm (excitation/emission), and the percentage inhibition was calculated as described above.

[2] = molecular target: T1, full-length human INPP5K (INPP5K-full) (Homo sapiens, UniProt Q9BT40); test: Fluorescence polarization assay to evaluate phosphatase inhibition; assay type: biochemical; conditions: 20 µM diC8-PI(3,4,5)P3, 30 min
T1 construct: full-length human INPP5K (amino acids 1–448, UniProt ID: Q9BT40); FLAG (N); made in house; host or cells: Expi293 cells (pcDNA3.4, transient)
T1 sequence (Q9BT40 1-448): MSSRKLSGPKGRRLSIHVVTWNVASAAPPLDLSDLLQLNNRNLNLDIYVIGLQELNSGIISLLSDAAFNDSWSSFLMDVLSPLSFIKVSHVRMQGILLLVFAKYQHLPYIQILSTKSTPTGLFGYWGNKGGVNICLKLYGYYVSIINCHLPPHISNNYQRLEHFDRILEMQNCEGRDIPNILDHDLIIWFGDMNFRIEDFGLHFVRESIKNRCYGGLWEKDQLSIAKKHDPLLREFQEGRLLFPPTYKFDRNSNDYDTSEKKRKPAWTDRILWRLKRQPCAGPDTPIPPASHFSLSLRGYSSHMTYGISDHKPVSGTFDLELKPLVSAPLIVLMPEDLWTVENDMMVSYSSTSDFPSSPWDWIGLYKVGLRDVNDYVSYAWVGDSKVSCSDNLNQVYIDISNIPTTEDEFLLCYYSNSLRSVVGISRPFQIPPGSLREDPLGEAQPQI
Source text: The protein purification is described in detail elsewhere. Briefly, full-length human INPP5K (amino acids 1–448, UniProt ID: Q9BT40), rat INPP5K (aa 1–446, UniProt ID: Q9R0B6), mouse INPP5K (aa 1–468, UniProt ID: Q8C5L6), hamster INPP5K (aa 1–453, UniProt ID: G3HTF6), guinea pig INPP5K (aa 1–473, UniProt ID: H0V8T7) containing an N-terminal FLAG-tag, full-length human SHIP2 (aa 1–1 258) containing a C-terminal FLAG-tag, and full-length human PIPP (amino acids 1–1 006) containing an N-terminal His8-tag were all cloned into the pcDNA3.4 expression vector and transiently expressed in Expi293 cells (Thermo Fisher Scientific). […] The purity of the protein obtained was evaluated using SDS-PAGE.
HTS assays were performed as described previously. […] Fluorescence polarization was evaluated using an Envision plate reader (PerkinElmer, U.S. LLC, Shelton, CT, USA) at 531/595 nm (excitation/emission) and calculated as 1 000 × [(I||- (G × I⊥))/(I||+ (G × I⊥))], where I|| is the parallel intensity, I⊥ is the perpendicular intensity, and G = 2.25. The amount of diC8-PI(3,4)P₂ product (P) was determined by standard curve fitting, and the percentage inhibition was calculated using the following equation: 100 × (Pctrl—P)/(Pctrl—Pblank), where Pctrl is the no-inhibitor control and Pblank is the no-enzyme control. […]

guinea pig INPP5K, sequence (H0V8T7 entry or part of it): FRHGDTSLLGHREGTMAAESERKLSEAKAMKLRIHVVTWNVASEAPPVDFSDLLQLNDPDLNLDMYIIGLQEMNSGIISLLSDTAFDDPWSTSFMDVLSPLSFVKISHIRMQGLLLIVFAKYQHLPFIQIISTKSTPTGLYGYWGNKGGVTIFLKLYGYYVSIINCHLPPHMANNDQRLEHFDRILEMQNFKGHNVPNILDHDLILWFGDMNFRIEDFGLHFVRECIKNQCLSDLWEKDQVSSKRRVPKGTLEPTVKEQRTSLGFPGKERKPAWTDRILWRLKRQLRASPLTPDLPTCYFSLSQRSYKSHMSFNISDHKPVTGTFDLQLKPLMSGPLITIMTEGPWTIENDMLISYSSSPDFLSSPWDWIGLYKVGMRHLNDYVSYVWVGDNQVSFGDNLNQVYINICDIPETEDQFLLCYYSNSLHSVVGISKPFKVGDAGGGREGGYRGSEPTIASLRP

In the case of `CC(C)c1sc(NC(=O)c2ccccc2)c(C(=O)O)c1-c1ccccc1` [CPD-1], the IC50 [1] is reported as 59 µM and the IC50 [2] is reported as 3.7 µM.
